Key:
[1] = Chemically simulated myeloperoxidase activity with sodium hypochlorite; conditions: about 10 μM, PBS pH 7.4, 150 equivalents sodium hypochlorite, 25° C.; ex 540 nm
Method: A kinetic study of SR101-NaphtO(para-aminophenyl) acid was carried out by incubating this fluorogenic substrate, previously solubilized in phosphate buffered saline (pH 7.4) at a concentration of about 10 μM, with 150 equivalents of sodium hypochlorite, at 25° C.
This chemical procedure using sodium hypochlorite is routinely used to simulate a myeloperoxidase activity (Shepherd et al., Chemistry and Biology, 2007, 14: 1221-1231).
The evolution of the intensity of fluorescence at 650 nm, emitted under an excitation wavelength of 540 nm, was recorded and is presented in FIG. 7.

[2] = test system: E. coli strain (ATCC 25922); assay: Reduction of SR101-NO2 by growing E. coli cells, followed by fluorescence; assay type: cell-based, Escherichia coli; conditions: about 10^6 cfu/ml, Trypcase Soya Broth, 37° C.; 0-100 μM as SR101-110/SR101-NO2 about 10/90; ex 550 nm, em 580 nm (FIG. 1c)
Method: The reduction of SR101-NO2 by an E. coli strain (ATCC 25922), known for its nitroreduction ability, was analyzed in fluorescence.
This kinetic study was carried out with an initial concentration of cells around 10^6 cfu/ml, growing in Trypcase Soya Broth at 37° C., in presence of different concentrations of fluorogenic substrate (from 0 μM to 100 μM). For this study, said fluorogenic substrate is used in the form of a SR101-110/SR101-NO2 (with a ratio of about 10/90).
The fluorescence at 580 nm was measured, under an excitation wavelength of 550 nm.

[3] = target: nitroreductase from Escherichia coli (NfsA) (Escherichia coli, UniProt P17117); assay: Kinetic study of SR101-NO2 with purified nitroreductase; assay type: biochemical
Chain of nitroreductase from Escherichia coli (NfsA) (P17117 whole entry): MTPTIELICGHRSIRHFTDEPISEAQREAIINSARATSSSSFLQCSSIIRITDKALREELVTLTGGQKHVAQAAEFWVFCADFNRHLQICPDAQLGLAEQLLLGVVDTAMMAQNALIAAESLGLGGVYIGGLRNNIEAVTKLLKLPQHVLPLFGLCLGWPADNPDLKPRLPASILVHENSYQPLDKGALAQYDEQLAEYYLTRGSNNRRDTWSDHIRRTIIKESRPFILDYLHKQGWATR
Method: A kinetic study was carried out by incubating the substrate SR101-NO2 in PBS at 37.5° C., at a concentration of about 5 μM.
Successive additions of NADH and nitroreductase from Escherichia coli (NfsA=4×2.5 μg) were performed and the fluorescence at 575 nm (emission maximum of SR101-110) was measured, under an excitation wavelength of 500 nm.

[4] = test system: E. coli K12; assay: Bacterial azoreduction overnight, compared with Methyl Red; assay type: cell-based; conditions: 100 μM, overnight 37° C.
Method: a) The bacterial reduction of SR101-Q-CO2H was compared to the one of Methyl Red, an azo dye. Each molecule at 100 μM in Trypcase Soya Broth in presence 7.5*10^7 colonies forming unit (cfu) of E. coli K12 was incubated overnight at 37° C. The fluorescence produced by the azoreduction of Methyl Red was measured at 395 nm under an excitation wavelength of 250 nm. The fluorescence produced by the azoreduction of SR101-Q-CO2H was measured at 580 nm under an excitation wavelength of 550 nm. For Methyl Red the ratio between medium with and without bacteria was 469/184 (×2.5). For SR101-Q-CO2H, it was 19 times upper: 17269/363 (×48).

[5] = test system: pig liver esterase (PLE); assay: Kinetic study with carboxylesterase; assay type: biochemical; conditions: about 5 μM, PBS pH 7.4, 10 units PLE, 37° C.; ex 540 nm (SR101-NaphtOAc) or 530 nm (SR101-NaphtO-lauric acid)
Method: 1. A kinetic study of SR101-NaphtOAc was carried out by incubating this fluorogenic substrate, previously solubilized in phosphate buffered saline (pH 7.4) at a concentration of about 5 μM, with 10 units of pig liver esterase (PLE), at 37° C. The evolution of the intensity of fluorescence at 600 nm, emitted under an excitation wavelength of 540 nm, was recorded and is presented in FIG. 5a. 2. A kinetic study of SR101-NaphtO-lauric acid was carried out by incubating this fluorogenic substrate, previously solubilized in phosphate buffered saline (pH 7.4) at a concentration of about 5 μM, with 10 units of pig liver esterase (PLE), at 37° C. The evolution of the intensity of fluorescence at 600 nm, emitted under an excitation wavelength of 530 nm, was recorded and is presented in FIG. 5b.

[6] = test system: sulfatase from Helix pomatia; assay: Kinetic study with sulfatase; assay type: biochemical; conditions: about 10 μM, PBS pH 7.4, 7.8 units sulfatase, 37° C.; ex 540 nm
Method: A kinetic study of SR101-NaphtO(SO3H) was carried out by incubating this fluorogenic substrate, previously solubilized in phosphate buffered saline (pH 7.4) at a concentration of about 10 μM, with 7.8 units of a sulfatase from Helix pomatia, at 37° C. The evolution of the intensity of fluorescence at 600 nm, emitted under an excitation wavelength of 540 nm, was recorded and is presented in FIG. 6.

[7] = emitted fluorescence before and after the reduction (FIG. 1b)

Nc1ccc(Oc2ccc3c4c(ccc3c2)C(c2ccc(S(=O)(=O)O)cc2S(=O)(=O)O)=c2cc3c5c(c2O4)CCC[N+]=5CCC3)cc1 [SR101-NaphtO(para-aminophenyl)]
fluorescence at 650 nm after addition of sodium hypochlorite [1]: remarkable fluorescence enhancement

O=[N+]([O-])c1ccc2c(c1)Oc1c3c4c(cc1=C2c1ccc(S(=O)(=O)O)cc1S(=O)(=O)[O-])CCC[N+]=4CCC3 [SR101-NO2]
nitroreduction by growing cells (fluorescence evolution) [2]: progressive nitroreduction | reduction of the substrate by nitroreductase ([3]; 5 μM substrate, total 10 μg enzyme (4×2.5 μg), after an hour of incubation at 37.5° C.): complete reduction | influence of NADH alone on the evolution of the fluorescence ([3]; NADH 0.5 mM, no enzyme, about 5 μM substrate in PBS, 37.5° C., ex 500 nm, em 575 nm): did not influence | fluorescence enhancement (factor) [3, 7]: 15 | quenching efficiency [3, 7]: 92%

CN(C)c1ccc(/N=N/c2ccccc2C(=O)O)cc1 [Methyl Red]
fluorescence of medium with bacteria ([4]; Trypcase Soya Broth, 7.5*10^7 cfu, Methyl Red ex 250/em 395 nm, SR101-Q-CO2H ex 550/em 580 nm): 469 | ratio between medium with and without bacteria (×) [4]: 2.5

CC(=O)Oc1ccc2c3c(ccc2c1)C(c1ccc(S(=O)(=O)[O-])cc1S(=O)(=O)O)=c1cc2c4c(c1O3)CCC[N+]=4CCC2 [SR101-NaphtOAc]
fluorescence at 600 nm after addition of the esterase [5]: remarkable fluorescence enhancement

CCCCCCCCCCCC(=O)Oc1ccc2c3c(ccc2c1)C(c1ccc(S(=O)(=O)O)cc1S(=O)(=O)O)=c1cc2c4c(c1O3)CCC[N+]=4CCC2 [SR101-NaphtO-lauric acid]
fluorescence at 600 nm after addition of the esterase [5]: remarkable fluorescence enhancement

O=S(=O)(O)Oc1ccc2c3c(ccc2c1)C(c1ccc(S(=O)(=O)[O-])cc1S(=O)(=O)O)=c1cc2c4c(c1O3)CCC[N+]=4CCC2 [SR101-NaphtO(SO3H)]
fluorescence at 600 nm after addition of the sulfatase [6]: remarkable fluorescence enhancement

Source: patent publication US9528990B2, “Fluorogenic/fluorescent probes derivative from sulfoxanthene, and use thereof” (bioMérieux, priority 2014, dated 2016)
